Laboratory results from patent publication US20260345603A1, “PRMT5 INHIBITORS” (Beijing Earthwise Technology Co., Ltd., priority 2022, published 2026).
Like-named read-outs stand apart in the source and are kept apart here.

System: HCT116^MTAP Deletion cells
Assay: Anti-proliferation assay on cells (CTG, 10 days), HCT116 MTAP Deletion
Type: cell-based
Settings: anti-proliferative activity, HCT116 MTAP Deletion, 10 days, class symbols, read-out: HCT116^MTAP Deletion GI50
Description: HCT116^MTAD Deletion cells were from Pharmaron (China); HCT116 cells were from ATCC; McCoy's 5A medium was purchased from Invitrogen (USA); penicillin-streptomycin and fetal bovine serum were purchased from Gibco (USA); a 384-well plate was purchased from PerkinElmer (USA); and Cell-Titer Glo reagent was purchased from Promega (USA).
Compound dissolution: All the compounds were dissolved in dimethyl sulfoxide (DMSO) and then stored. The compounds were stored at room temperature in a dry condition for 3 months for short term storage or at −20 °C for long term storage.
The cells were cultured strictly in accordance with ATCC requirements. The cell culture medium (McCoy's 5A medium+10% fetal bovine serum+1% penicillin+streptomycin) was transferred to a 15 mL centrifuge tube and centrifuged at 1000 rpm for 5 min. The supernatant was removed. The cells were resuspended with complete culture medium, inoculated into a culture dish at the required density, and cultured in an incubator at 37 °C, 95% humid air, and 5% carbon dioxide. The culture medium was replenished or the cells were passaged every 2-3 days depending on the cell growth condition.
When the confluency of cells in the culture dish reached about 90%, the cells were washed twice with PBS, and then treated with trypsin to become single cells. The cells were counted, and 40 μl of the cells was inoculated into each well of a 384-well plate (50 cells/well). The plate was equilibrated at 37 °C and 5% carbon dioxide for 10 to 15 minutes. The compounds were injected into the 384-well plate using Echo550, and positive control and negative control (0.1% DMSO) were set up. Each compound was subjected to a 3-fold dilution, resulting in 10 concentration gradients, in duplicate, and the content of DMSO was 0.1%. The 384-well plate was incubated in a cell culture incubator for 10 days.
Then, 40 μl of cell proliferation assay reagent (CTG) was added to the 384-well plate, and the plate was shaken to mix well. Then, the 384-well plate was incubated at 37 °C and 5% carbon dioxide in the dark for 30 minutes. The data were read using the Envision multifunctional microplate reader. […] According to the different drug concentrations and their corresponding inhibition rates, the GI50 curve was drawn using GraphPad 8.0 software. The data were analyzed, and the final GI50 value was obtained.

| SMILES | GI50 (Homo sapiens, HCT-116, 240 h) [µM] | GI50 [µM] |
| --- | --- | --- |
| CN(C(=O)C(=O)Nc1cnc(N)c2c1cnn2C)C1COCc2c(F)cc(Cl)cc21 (racemic) [Compound 155] | 0.01 to 0.1 |  |
| CN(C(=O)C(=O)Nc1cnc(N)c2c1cnn2C)C1COCc2cc(-c3ccnn3C)ccc21 (racemic) [Compound 156] | ≤ 0.01 |  |
| Cc1cc(NC(=O)C(=O)N(C)C2COCc3cc(C4=CCOCC4)ccc32)cnc1N (racemic) [Compound 162] | 0.1 to 1 |  |
| CN(C(=O)C(=O)Nc1cnc(N)c2c1cnn2C)C1COCc2c1ccc(Cl)c2Cl (racemic) [Compound 168] | ≤ 0.01 |  |
| CN(C(=O)C(=O)Nc1cnc(N)c2c1cnn2C)C1COc2cc(F)c(F)cc21 (racemic) [Compound 172] | 0.01 to 0.1 |  |
| CN(C(=O)C(=O)Nc1cnc(N)c2c1cnn2C)C1COc2cc(Br)ccc21 (racemic) [Compound 180] | ≤ 0.01 |  |
| Cc1ncc(-c2ccc3c(c2)COCC3N(C)C(=O)C(=O)Nc2cnc(N)c3c2cnn3C)s1 (racemic) [Compound 181] | ≤ 0.01 |  |
| CN(C(=O)C(=O)Nc1cnc(N)c2c1cnn2C)C1COc2cc(Cl)c(Cl)cc21 (racemic) [Compound 186] | ≤ 0.01 |  |
| CN(C(=O)C(=O)Nc1cnc(N)c2c1cnn2C)C1COc2cc(-c3ccnn3C)ccc21 (racemic) [Compound 192] | ≤ 0.01 |  |
| Cc1ncc(-c2ccc3c(n2)COCC3N(C)C(=O)C(=O)Nc2cnc(N)c3c2cnn3C)s1 (racemic) [Compound 209] | ≤ 0.01 |  |
| CN(C(=O)C(=O)Nc1cnc(N)c2c1cnn2C)C1COCc2cc(-c3ccc(C(F)(F)F)nc3)ccc21 (racemic) [Compound 221] | ≤ 0.01 |  |
| CN(C(=O)C(=O)Nc1cnc(N)c2c1cnn2C)C1COCc2cc(-c3cnn(C4CC4)c3)ccc21 (racemic) [Compound 223] | ≤ 0.01 |  |
| CN(C(=O)C(=O)Nc1cnc(N)c2c1cnn2C)C1COCc2cc(-c3cnn(C(F)(F)F)c3)ccc21 (racemic) [Compound 231] | ≤ 0.01 |  |
| CN(C(=O)C(=O)Nc1cnc(N)c2c1cnn2C)C1COCc2cc(-c3ccnn3C3CC3)ccc21 (racemic) [Compound 241] | ≤ 0.01 |  |
| CCC(C)N(Cc1ccc(C(F)(F)F)cn1)C(=O)C(=O)Nc1cnc(OC)c(C(N)=O)c1 (single isomer, unassigned) [Example 5-P1] | 0.01 to 0.1 |  |
| Cc1cc(NC(=O)C(=O)N(Cc2ccc(C(F)(F)F)cn2)C2CCCOC2)cnc1N (single isomer, unassigned) [Example 14-P1] | 0.1 to 1 |  |

| SMILES | GI50 (Homo sapiens, HCT-116, 240 h) [µM] | GI50 [µM] |
| --- | --- | --- |
| CC1OCC(N(C)C(=O)C(=O)Nc2cnc(N)c3c2cnn3C)c2ccc(C(F)(F)F)cc21 (centres unmarked) [Compound 187] | ≤ 0.01 |  |
| C[C@H](c1ncccn1)N(Cc1ccc(C(F)(F)F)cn1)C(=O)C(=O)Nc1cnc(N)c2c1COC2 [Example 2] | 0.01 to 0.1 |  |
| Cc1cc(NC(=O)C(=O)N(C)Cc2ccc(C(F)(F)F)cn2)cnc1N [Example 3] | 1 to 10 |  |
| Cn1ncc2c(NC(=O)C(=O)N(Cc3ccc(C(F)(F)F)cn3)CC3CCC3)cnc(N)c21 [Example 4] | 0.01 to 0.1 |  |
| Cc1cc(/C=C/C(=O)N(Cc2ccc(C(F)(F)F)cn2)[C@H](C)c2ncccn2)cnc1N [Example 6] | > 10 |  |
| Cc1cc(C2CC2C(=O)N(Cc2ccc(C(F)(F)F)cn2)[C@H](C)c2ncccn2)cnc1N (some centres unmarked) [Example 7] | > 10 |  |
| CCC(C)N(Cc1ccc(C(F)(F)F)cn1)C(=O)C(=O)Nc1cnc(N)c(C)c1 (centres unmarked) [Example 8] | 0.01 to 0.1 |  |
| COC[C@H](C)N(Cc1ccc(C(F)(F)F)cn1)C(=O)C(=O)Nc1cnc(N)c(C)c1 [Example 9] | 0.01 to 0.1 |  |
| CCC(C)N(Cc1ccc(C(F)(F)F)cn1)C(=O)C(=O)Nc1cnc(N)c2c1COC2C (centres unmarked) [Example 10] | 0.01 to 0.1 |  |
| Cc1cc(NC(=O)C(=O)N(Cc2ccc(C(F)(F)F)cn2)C2CCCC2)cnc1N [Example 11] | 0.1 to 1 |  |
| Cc1cc(NC(=O)C(=O)N(Cc2ccc(C(F)(F)F)cn2)C2CC2)cnc1N [Example 12] | 0.1 to 1 |  |
| Cc1cc(NC(=O)C(=O)N(Cc2ccc(C(F)(F)F)cn2)C2CCC2)cnc1N [Example 13] | 0.1 to 1 |  |
| Cc1cc(NC(=O)C(=O)N(Cc2ccc(C(F)(F)F)cn2)CC2CC2)cnc1N [Example 15] | 0.01 to 0.1 |  |
| Cc1cc(NC(=O)C(=O)N(Cc2ccc(C(F)(F)F)cn2)CC2CCC2)cnc1N [Example 16] | 0.01 to 0.1 |  |
| Cc1cc(NC(=O)C(=O)N(Cc2ccc(C(F)(F)F)cn2)CC2CCCC2)cnc1N [Example 17] | 0.01 to 0.1 |  |
| Cc1cc(NC(=O)C(=O)N(Cc2ccc(C(F)(F)F)cn2)c2cnn(C)c2)cnc1N [Example 18] | 0.1 to 1 |  |

Continued, values first:

| GI50 (Homo sapiens, HCT-116, 240 h) [µM] | GI50 [µM] | SMILES |
| --- | --- | --- |
| 0.01 to 0.1 |  | CCC(C)N(Cc1ccc(C(F)(F)F)cn1)C(=O)C(=O)Nc1cnc(N)c2c1cnn2C (racemic) [Example 46-P1] |
| 0.01 to 0.1 |  | Cc1cc(NC(=O)C(=O)N(Cc2ccc(C(F)(F)F)cn2)C(C)c2cscn2)cnc1N (single isomer, unassigned) [Example 19-P1] |
| 0.01 to 0.1 |  | CCC(C)N(Cc1ccc(C(F)(F)F)cn1)C(=O)C(=O)Nc1cnc(N)c(C)c1 (single isomer, unassigned) [Example 45-P1] |
|  | 0.01 to 0.1 | CN(C(=O)C(=O)Nc1cnc(N)c2c1cnn2C)C1COc2cc(C(F)(F)F)ccc21 (single isomer, unassigned) [Example 112-P2] |
| 0.1 to 1 |  | CCc1cc(NC(=O)C(=O)N(Cc2ccc(C(F)(F)F)cn2)[C@H](C)c2ncccn2)cnc1N [Example 21] |
| 1 to 10 |  | C[C@H](c1ncccn1)N(Cc1ccc(C(F)(F)F)cn1)C(=O)C(=O)Nc1cnc(N)c(F)c1 [Example 22] |
| 1 to 10 |  | C[C@H](c1ncccn1)N(Cc1ccc(C(F)(F)F)cn1)C(=O)C(=O)Nc1cnc(N)c(Cl)c1 [Example 23] |
| 0.1 to 1 |  | C[C@H](c1ncccn1)N(Cc1ccc(C(F)(F)F)cn1)C(=O)C(=O)Nc1cnc(N)c(Br)c1 [Example 24] |
| 0.01 to 0.1 |  | COc1ncc(NC(=O)C(=O)N(Cc2ccc(C(F)(F)F)cn2)[C@H](C)c2ncccn2)cc1C(N)=O [Example 25] |
| 0.1 to 1 |  | Cc1cc(N)ncc1NC(=O)C(=O)N(Cc1ccc(C(F)(F)F)cn1)[C@H](C)c1ncccn1 [Example 26] |
| 0.1 to 1 |  | Cc1nc(NC(=O)C(=O)N(Cc2ccc(C(F)(F)F)cn2)[C@H](C)c2ncccn2)cnc1N [Example 27] |
| 1 to 10 |  | Cc1cc(NC(=O)C(=O)N(Cc2ccc(C#N)cn2)[C@H](C)c2ncccn2)cnc1N [Example 28] |
| 0.1 to 1 |  | Cc1cc(NC(=O)C(=O)N(Cc2ccc(N3CCC(F)(F)C3)cn2)[C@H](C)c2ncccn2)cnc1N [Example 29] |
| 0.01 to 0.1 |  | C[C@H](c1ncccn1)N(Cc1ccc(C(F)(F)F)cn1)C(=O)C(=O)Nc1cnc(N)c2c1cnn2C [Example 30] |
| 0.1 to 1 |  | C[C@H](c1ncccn1)N(Cc1ccc(C(F)(F)F)cn1)C(=O)C(=O)Nc1cnc(N)c2c1CCCC2 [Example 31] |
| 0.1 to 1 |  | C[C@H](c1ncccn1)N(Cc1ccc(C(F)(F)F)cn1)C(=O)C(=O)Nc1cnc(N)c2ccncc12 [Example 32] |
| 0.01 to 0.1 |  | CCOc1ccc(CN(C(=O)C(=O)Nc2cnc(N)c(C)c2)[C@H](C)c2ncccn2)nn1 [Example 35] |
| 0.01 to 0.1 |  | Cc1cc(NC(=O)C(=O)N(Cc2ccc(C(F)(F)F)cn2)[C@H](C)C2CC2)cnc1N [Example 36] |
| 0.01 to 0.1 |  | Cc1cc(NC(=O)C(=O)N(Cc2ccc(C(F)(F)F)cn2)CC(C)C)cnc1N [Example 37] |
| > 10 |  | C[C@H](c1ncccn1)N(Cc1ccc(C(F)(F)F)cn1)C(=O)C(=O)Nc1cnc(N)c2cncn12 [Example 38] |
| 0.1 to 1 |  | C[C@H](C1CC1)N(Cc1ccc(C(F)(F)F)cn1)C(=O)C(=O)Nc1cnc(N)c2c1COC2 [Example 39] |
| 0.1 to 1 |  | Nc1ncc(NC(=O)C(=O)N(Cc2ccc(C(F)(F)F)cn2)CC2CC2)c2c1COC2 [Example 40] |
| 0.1 to 1 |  | Nc1ncc(NC(=O)C(=O)N(Cc2ccc(C(F)(F)F)cn2)CC2CCC2)c2c1COC2 [Example 41] |
| 0.1 to 1 |  | Cc1cc(NC(=O)C(=O)N(Cc2ccc(C3=CCOCC3)nn2)[C@H](C)c2ncccn2)cnc1N [Example 42] |
